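Test compounds were applied to cells in 96-well plates for 48 hours at 5 doses. GI50 is the concentration that inhibits growth by half.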 The source made the active and inactive calls. Cut-off read from the data, not from the text of the source: active = GI50 up to about 1.1 µM and inactive = higher.
Experiments:
Experiment in all cases: NCI anticancer screen, dose series, 48 h
M19-MEL = tested on: M19-MEL
LXFL 529 = tested on: LXFL 529
KM-20L2 = tested on: KM-20L2
DMS-273 = tested on: DMS-273
HOP-18 = tested on: HOP-18
XF498 = tested on: XF498
SNB-78 = tested on: SNB-78
DLD-1 = tested on: DLD-1
RXF 631 = tested on: RXF 631

Structure (SMILES) | GI50 (M19-MEL) | GI50 (LXFL 529) | GI50 (KM-20L2) | GI50 (DMS-273) | GI50 (HOP-18) | GI50 (XF498) | GI50 (SNB-78) | GI50 (DLD-1) | GI50 (RXF 631)
COc1cc(/C=C/c2ccc(C)cc2)cc(OC)c1OC | 9.98 µM (inactive) | 5.58 µM (inactive) | 2.09 µM (inactive) | 3.79 µM (inactive) | 11.4 µM (inactive) | 6.49 µM (inactive) | 2.14 µM (inactive) | 4.06 µM (inactive) | 
CCc1ccc(/N=C\c2cc(OC)c(OC)c(OC)c2)cc1 | > 100 µM (inactive) | 51.9 µM (inactive) | > 100 µM (inactive) | > 100 µM (inactive) | > 100 µM (inactive) | > 100 µM (inactive) | > 100 µM (inactive) | 77.8 µM (inactive) | 
O=C(/C=C/c1c(O)ccc2ccccc12)c1ccccc1 | 29.4 µM (inactive) | > 100 µM (inactive) | > 100 µM (inactive) | > 100 µM (inactive) | 36.8 µM (inactive) | > 100 µM (inactive) | > 100 µM (inactive) | 85.7 µM (inactive) | > 100 µM (inactive)
C/C(=N\NC(=N)N)C(CN(C)C)C(c1ccccc1)c1c(O)c2ccccc2oc1=O (configuration not stated) | > 100 µM (inactive) | > 100 µM (inactive) | > 100 µM (inactive) | > 100 µM (inactive) | > 100 µM (inactive) | > 100 µM (inactive) | > 100 µM (inactive) | > 100 µM (inactive) | 
BrCC[N+]12CCCN1CCC2 | 16.9 µM (inactive) | 2.88 µM (inactive) | 20.6 µM (inactive) | 18.7 µM (inactive) | 8.73 µM (inactive) |  | 16.2 µM (inactive) | 4.38 µM (inactive) | 21.1 µM (inactive)
CCOC(=N)CC(=O)Nc1ccc(Cl)cc1 | > 100 µM (inactive) | > 100 µM (inactive) | > 100 µM (inactive) | > 100 µM (inactive) | 1.73 µM (inactive) | > 100 µM (inactive) | > 100 µM (inactive) | > 100 µM (inactive) | 
O=C(O)CCC(=O)N1C/C(=C\c2ccccc2)C(=O)/C(=C/c2ccccc2)C1 | 1.75 µM (inactive) | 2.67 µM (inactive) | 2.92 µM (inactive) | 2.16 µM (inactive) | 5.55 µM (inactive) | 2.7 µM (inactive) | 7.24 µM (inactive) | 2.32 µM (inactive) | 3.66 µM (inactive)
CCC1CCc2c(OC)ccc(OCC(=O)O)c2C1=O (configuration not stated) | > 100 µM (inactive) | > 100 µM (inactive) |  | > 100 µM (inactive) |  | > 100 µM (inactive) | > 100 µM (inactive) | > 100 µM (inactive) | 
CCCC(=O)OC[n+]1ccc2c(C)c3[nH]c4ccccc4c3c(C)c2c1 | > 100 µM (inactive) | 0.57 µM (active) | 0.478 µM (active) | 0.101 µM (active) | 1.09 µM (active) |  | 1.1 µM (active) |  | 0.378 µM (active)
C/C(=N/NC(=O)c1ccccc1O)c1ccc(/C(C)=N\NC(=O)c2ccccc2O)c2nc3cc(C)c(C)cc3nc12 | > 100 µM (inactive) | > 100 µM (inactive) | > 100 µM (inactive) | > 100 µM (inactive) | 44.2 µM (inactive) | > 100 µM (inactive) | > 100 µM (inactive) | > 100 µM (inactive) | > 100 µM (inactive)
CCOC(=O)Nn1c(C)cc(C(=O)OC)c1C | > 100 µM (inactive) | > 100 µM (inactive) | > 100 µM (inactive) | > 100 µM (inactive) |  | > 100 µM (inactive) | > 100 µM (inactive) | > 100 µM (inactive) | 
c1ccc(C2C3=C(Nc4ncnn42)c2ccccc2C3)cc1 (configuration not stated) | 9.75 µM (inactive) |  | 7.89 µM (inactive) | 12.1 µM (inactive) | 56.1 µM (inactive) | 15.4 µM (inactive) | > 100 µM (inactive) | 14.1 µM (inactive) | > 100 µM (inactive)
Cc1ccc(NC(=O)C(=O)C2C(=O)NC(=O)NC2=O)cc1C | > 100 µM (inactive) | > 100 µM (inactive) | > 100 µM (inactive) | > 100 µM (inactive) | > 100 µM (inactive) | > 100 µM (inactive) | > 100 µM (inactive) | > 100 µM (inactive) | 
COC(=O)c1onc(-c2c(OC)cc(OC)cc2OC)c1C(=O)OC | > 100 µM (inactive) | > 100 µM (inactive) | > 100 µM (inactive) | > 100 µM (inactive) | > 100 µM (inactive) | > 100 µM (inactive) | > 100 µM (inactive) | > 100 µM (inactive) | 
C[N+]1(C)C/C(=C\c2ccncc2)C(=O)/C(=C/c2ccncc2)C1 | > 100 µM (inactive) | > 100 µM (inactive) | > 100 µM (inactive) | > 100 µM (inactive) | > 100 µM (inactive) |  | > 100 µM (inactive) | > 100 µM (inactive) | 
Nc1c(-c2nc3ccccc3s2)[n+]([O-])c2ccccc2[n+]1[O-] | 28 µM (inactive) | 28.4 µM (inactive) | 48.2 µM (inactive) |  | 23.5 µM (inactive) |  | 63 µM (inactive) | 33 µM (inactive) | 
CC(=O)Nc1ccc(/C=c2\sc3nnc(-c4cccnc4)n3c2=O)cc1 | 18.1 µM (inactive) | 15.9 µM (inactive) | 17.5 µM (inactive) | 25.1 µM (inactive) | 19.1 µM (inactive) |  | 34.4 µM (inactive) | 17.3 µM (inactive) | 18.1 µM (inactive)
O=C(O)CCC1CCc2cccc3occ1c23 (configuration not stated) | > 100 µM (inactive) | > 100 µM (inactive) | > 100 µM (inactive) | > 100 µM (inactive) |  |  | > 100 µM (inactive) | > 100 µM (inactive) | > 100 µM (inactive)
Cc1noc(C)c1CCCOC1COc2ccccc2OCCOCCOc2ccccc2OC1 | > 100 µM (inactive) | > 100 µM (inactive) | > 100 µM (inactive) | > 100 µM (inactive) | > 100 µM (inactive) | > 100 µM (inactive) | > 100 µM (inactive) | > 100 µM (inactive) | 
COc1ccc(C(=O)N2c3ccccc3N(C)n3cccc3C2CC(=O)O)cc1 (configuration not stated) | > 100 µM (inactive) | > 100 µM (inactive) | > 100 µM (inactive) | > 100 µM (inactive) |  |  | > 100 µM (inactive) | > 100 µM (inactive) | 
O=C1c2ccc(O)cc2C(=O)c2ccc(O)cc21 | > 100 µM (inactive) | 87.3 µM (inactive) |  | 49.2 µM (inactive) |  | > 100 µM (inactive) | > 100 µM (inactive) | 38.6 µM (inactive) | 75 µM (inactive)
COC[C@H](C)/N=C/N1CCc2ccccc2C1(Cc1ccccc1)Cc1ccccc1 |  | 11.8 µM (inactive) | 10.8 µM (inactive) |  | 11 µM (inactive) | 12.3 µM (inactive) |  | 8.18 µM (inactive) | 13.5 µM (inactive)
Cc1cc2cc(Cl)ccc2nc1C(=O)c1ccccc1 | > 100 µM (inactive) | > 100 µM (inactive) | > 100 µM (inactive) | > 100 µM (inactive) | > 100 µM (inactive) | > 100 µM (inactive) | > 100 µM (inactive) | > 100 µM (inactive) | > 100 µM (inactive)
COc1ccc(C2=Nc3ccccc3NC(=O)C2)cc1 | 48.3 µM (inactive) | > 100 µM (inactive) | 55.7 µM (inactive) | 27.4 µM (inactive) | > 100 µM (inactive) | 20.1 µM (inactive) | 25.2 µM (inactive) | 62.8 µM (inactive) | > 100 µM (inactive)
Cc1cc2c(c(N)c1C)C(=O)c1ccccc1C2=O | 65.5 µM (inactive) | 28.8 µM (inactive) | 25 µM (inactive) | 24.4 µM (inactive) | 1.56 µM (inactive) |  | > 100 µM (inactive) | 62.7 µM (inactive) | 
CCOC(=O)CC1=N/C(=N/c2cc(Cl)ccc2Cl)SC1 | > 100 µM (inactive) | > 100 µM (inactive) | > 100 µM (inactive) | > 100 µM (inactive) | > 100 µM (inactive) | > 100 µM (inactive) | > 100 µM (inactive) | 91.8 µM (inactive) | 
COc1cc(C2C(Cl)C(=O)N2NC(=O)Cc2ccccc2)cc(Br)c1O (configuration not stated) | > 100 µM (inactive) | 86.3 µM (inactive) | > 100 µM (inactive) | > 100 µM (inactive) | 71.6 µM (inactive) | > 100 µM (inactive) | > 100 µM (inactive) | 86.9 µM (inactive) | 
